From ChEMBL document CHEMBL1201862, “PubChem BioAssay data set” (2004)
Where “and” joins values, the source holds several entries; their conditions need not be identical. Equal values may be shown once.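 All cell lines were grown in 96-well plates and treated with compound for 48 hours. GI50: concentration for 50% inhibition of growth.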 Calls of active or inactive are those of the source. Rule as the data show it: active = GI50 up to about 1.1 µM and inactive = higher.

Columns and labels:
Test in all cases: NCI anticancer screen, dose series, 48 h
HOP-92 = test system: HOP-92
SK-MEL-28 = test system: SK-MEL-28
SF-268 = test system: SF-268
A549 = test system: A549
OVCAR-8 = test system: OVCAR-8
786-0 = test system: 786-0
U-251 = test system: U-251
OVCAR-4 = test system: OVCAR-4
SR = test system: SR
NCI-H460 = test system: NCI-H460
Malme-3M = test system: Malme-3M
SW-620 = test system: SW-620
K562 = test system: K562
MOLT-4 = test system: MOLT-4
TK-10 = test system: TK-10
A498 = test system: A498
M14 = test system: M14
UACC-62 = test system: UACC-62
M19-MEL = test system: M19-MEL
T47D = test system: T47D

SMILES | GI50 (HOP-92) | GI50 (SK-MEL-28) | GI50 (SF-268) | GI50 (A549) | GI50 (OVCAR-8) | GI50 (786-0) | GI50 (U-251) | GI50 (OVCAR-4) | GI50 (SR) | GI50 (NCI-H460) | GI50 (Malme-3M) | GI50 (SW-620) | GI50 (K562) | GI50 (MOLT-4) | GI50 (TK-10) | GI50 (A498) | GI50 (M14) | GI50 (UACC-62) | GI50 (M19-MEL) | GI50 (T47D)
COc1ccc(/N=N/c2c(-c3ccccc3)nn(C(=O)CC(=O)Nc3ccccc3Cl)c2-c2ccccc2)cc1 | 20.6 µM (inactive) | > 100 µM (inactive) | 82.8 µM (inactive) | > 100 µM (inactive) | > 100 µM (inactive) | > 100 µM (inactive) | > 100 µM (inactive) | 57 µM (inactive) | 2.82 µM (inactive) | > 100 µM (inactive) | > 100 µM (inactive) | > 100 µM (inactive) | 30.7 µM (inactive) | 3.42 µM (inactive) | 77.6 µM (inactive) | > 100 µM (inactive) | > 100 µM (inactive) | > 100 µM (inactive) | > 100 µM (inactive) | 
CCOC(=N)CC(=O)c1ccccc1 | > 100 µM (inactive) | > 100 µM (inactive) | > 100 µM (inactive) | > 100 µM (inactive) | > 100 µM (inactive) | > 100 µM (inactive) | > 100 µM (inactive) | > 100 µM (inactive) | > 100 µM (inactive) |  | > 100 µM (inactive) | > 100 µM (inactive) | > 100 µM (inactive) | > 100 µM (inactive) | > 100 µM (inactive) | > 100 µM (inactive) | > 100 µM (inactive) | > 100 µM (inactive) | > 100 µM (inactive) | 
C=C1C(=O)OC2/C=C(\CO)C(OC(C)=O)CC(O)/C(C)=C/C(OC(=O)C(C)CC)C12 (stereo unspecified) | 18.5 µM (inactive) and 21.7 µM (inactive) | 18.3 µM (inactive) and 26.9 µM (inactive) | 28.9 µM (inactive) and 19.7 µM (inactive) | 45.8 µM (inactive) and 37.3 µM (inactive) | 21.7 µM (inactive) and 17.7 µM (inactive) | 14.8 µM (inactive) and 21.8 µM (inactive) | 30.1 µM (inactive) and 26.9 µM (inactive) | 33.5 µM (inactive) and 17.3 µM (inactive) | 8 µM (inactive) | 23.3 µM (inactive) and 38.6 µM (inactive) | 13.5 µM (inactive) and 15.3 µM (inactive) | 11.8 µM (inactive) and 21.5 µM (inactive) |  |  | 17.6 µM (inactive) and 19.3 µM (inactive) | 33 µM (inactive) and 28.2 µM (inactive) | 16.7 µM (inactive) and 15.8 µM (inactive) | 19.4 µM (inactive) and 17.5 µM (inactive) | 16.8 µM (inactive) | 15.7 µM (inactive)
Cc1nc2ccccc2c(=O)n1NC(=S)Nc1ccccc1 | 85.1 µM (inactive) | > 100 µM (inactive) | > 100 µM (inactive) | > 100 µM (inactive) | > 100 µM (inactive) | > 100 µM (inactive) | > 100 µM (inactive) | 91.2 µM (inactive) | > 100 µM (inactive) | > 100 µM (inactive) | > 100 µM (inactive) | > 100 µM (inactive) | > 100 µM (inactive) | > 100 µM (inactive) | > 100 µM (inactive) | > 100 µM (inactive) | > 100 µM (inactive) | > 100 µM (inactive) | > 100 µM (inactive) | 
O=C(NC(=O)c1ccccc1[N+](=O)[O-])Nc1ccc(Oc2ncc(Cl)cn2)c(C(F)(F)F)c1 | < 0.01 µM (active) | < 0.0104 µM (active) | 0.0733 µM (active) | 0.0183 µM (active) | 0.0236 µM (active) | < 0.01 µM (active) | < 0.0121 µM (active) | 1.6 µM (inactive) | 0.116 µM (active) | < 0.01 µM (active) | < 0.01 µM (active) | < 0.01 µM (active) | < 0.0336 µM (active) | 0.047 µM (active) | 20.1 µM (inactive) | < 0.01 µM (active) | < 0.0115 µM (active) | < 0.01 µM (active) | < 0.0171 µM (active) | 22.1 µM (inactive)
COC(=O)C(=O)OC1(C(C)=O)CC2(c3ccccc3)OC1(c1ccccc1)c1ccccc12 (stereo unspecified) | 14 µM (inactive) |  | 20 µM (inactive) | 14.8 µM (inactive) | 15.9 µM (inactive) | 13.5 µM (inactive) | 16.4 µM (inactive) | 20.2 µM (inactive) | 28.1 µM (inactive) | 18.4 µM (inactive) | 19.1 µM (inactive) | 16.4 µM (inactive) | 27.7 µM (inactive) | 22 µM (inactive) | 29.4 µM (inactive) | 18.6 µM (inactive) | 17.9 µM (inactive) | 14.9 µM (inactive) | 16.9 µM (inactive) | 
COC(=O)C(C(=O)C(=O)NC1=C(Cl)C(=O)c2ccccc2C1=O)c1csc(-n2nc(-c3ccccc3)cc2-c2ccccc2)n1 (stereo unspecified) | > 100 µM (inactive) |  | 24.3 µM (inactive) | > 100 µM (inactive) | > 100 µM (inactive) | > 100 µM (inactive) | > 100 µM (inactive) | > 100 µM (inactive) | > 100 µM (inactive) | > 100 µM (inactive) | 19.1 µM (inactive) | > 100 µM (inactive) | 20.9 µM (inactive) | > 100 µM (inactive) | > 100 µM (inactive) | > 100 µM (inactive) | > 100 µM (inactive) | 44.1 µM (inactive) | > 100 µM (inactive) | 
COc1ccc2nc(NC(=O)C(=O)CC(=O)c3ccc(Cl)cc3)sc2c1 | 30.5 µM (inactive) | > 100 µM (inactive) | 85.3 µM (inactive) | 67.1 µM (inactive) | > 100 µM (inactive) | > 100 µM (inactive) | 48.4 µM (inactive) | 20.9 µM (inactive) | > 100 µM (inactive) | > 100 µM (inactive) | > 100 µM (inactive) | > 100 µM (inactive) |  | > 100 µM (inactive) | > 100 µM (inactive) | > 100 µM (inactive) | > 100 µM (inactive) | 68.7 µM (inactive) | > 100 µM (inactive) | 
N#Cc1ccc(Oc2ccccc2)cc1C#N | > 100 µM (inactive) | > 100 µM (inactive) | > 100 µM (inactive) | > 100 µM (inactive) | > 100 µM (inactive) | > 100 µM (inactive) | 44.3 µM (inactive) | 96.2 µM (inactive) | 20.4 µM (inactive) | 33.1 µM (inactive) | > 100 µM (inactive) |  | 49.3 µM (inactive) | 59.3 µM (inactive) | > 100 µM (inactive) | > 100 µM (inactive) | > 100 µM (inactive) | > 100 µM (inactive) | 54.2 µM (inactive) | 
O=C1c2ccccc2N2Oc3ccccc3C12c1ccccc1 (stereo unspecified) | 92.7 µM (inactive) | > 100 µM (inactive) | > 100 µM (inactive) | > 100 µM (inactive) | > 100 µM (inactive) | > 100 µM (inactive) | > 100 µM (inactive) | > 100 µM (inactive) | > 100 µM (inactive) |  | > 100 µM (inactive) | > 100 µM (inactive) | > 100 µM (inactive) | > 100 µM (inactive) |  | > 100 µM (inactive) | > 100 µM (inactive) | > 100 µM (inactive) | > 100 µM (inactive) | 
Cc1cc(C(=C2C=CC(=N)C=C2)c2ccc(N)cc2)ccc1N [FUCHSIN, BASIC] | 6.81 µM (inactive) | 8.2 µM (inactive) | 0.556 µM (active) | 3.38 µM (inactive) | 1.35 µM (inactive) | 1.09 µM (active) |  | 8.43 µM (inactive) | 13.3 µM (inactive) | 2.52 µM (inactive) | 2.65 µM (inactive) | 3.67 µM (inactive) | 2.79 µM (inactive) | 5.51 µM (inactive) | 8.97 µM (inactive) | 32.5 µM (inactive) | 4.23 µM (inactive) | 4.45 µM (inactive) | 4.21 µM (inactive) | 1.01 µM (active)
CSCC1CC(c2ccc(Cl)cc2)=NO1 (stereo unspecified) | > 100 µM (inactive) | > 100 µM (inactive) | > 100 µM (inactive) | > 100 µM (inactive) | > 100 µM (inactive) | > 100 µM (inactive) | > 100 µM (inactive) | > 100 µM (inactive) | > 100 µM (inactive) | > 100 µM (inactive) | > 100 µM (inactive) | > 100 µM (inactive) | > 100 µM (inactive) | > 100 µM (inactive) | > 100 µM (inactive) | > 100 µM (inactive) | > 100 µM (inactive) | > 100 µM (inactive) | > 100 µM (inactive) | 
